Measurements reported in patent publication US9738932B2, “Biomarkers for cardiovascular side-effects induced by cox-2 inhibitory compounds” (FIRALIS SAS, priority 2005, dated 2017).

Test system: mRNA expression in cardiovascular tissues
Details: cynomolgus monkey, in vivo, 2 weeks

Cc1ccc(-c2cc(C(F)(F)F)nn2-c2ccc(S(N)(=O)=O)cc2)cc1 [Celebrex]
CYP1B1 (202436_s_at) avg fold change vs control: 1.0 fold
CYP3A5 (214234_s_at) avg fold change vs control: 1.3 fold
CYP11B1 (214630_at) avg fold change vs control: 1.1 fold
ECM1 (209365_s_at) avg fold change vs control: 0.9 fold
F2RL1 (206429_at) avg fold change vs control: 1.1 fold
F13A1 (203305_at) avg fold change vs control: 0.9 fold
FCGR1A (214511_x_at) avg fold change vs control: 1.1 fold
G1P2 (205483_s_at) avg fold change vs control: 1.4 fold
HCA127 (220040_x_at) avg fold change vs control: 1.0 fold
HCK (208018_s_at) avg fold change vs control: 1.4 fold
HFE (210864_x_at) avg fold change vs control: 1.1 fold
HFE (211329_x_at) avg fold change vs control: 0.7 fold
HFE (211332_x_at) avg fold change vs control: 0.8 fold
HFE (211863_x_at) avg fold change vs control: 0.9 fold
HFE (211866_x_at) avg fold change vs control: 0.9 fold
HHL (203020_at) avg fold change vs control: 1.4 fold
HLA-A (211528_x_at) avg fold change vs control: 1.1 fold
HLA-A (211529_x_at) avg fold change vs control: 1.2 fold
HLA-A (211530_x_at) avg fold change vs control: 1.5 fold
HLA-A (215313_x_at) avg fold change vs control: 1.2 fold
HLA-B (208729_x_at) avg fold change vs control: 1.1 fold
HLA-B (209140_x_at) avg fold change vs control: 1.1 fold
HLA-B (211911_x_at) avg fold change vs control: 1.2 fold
HLA-C (208812_x_at) avg fold change vs control: 1.2 fold
HLA-C (214459_x_at) avg fold change vs control: 1.3 fold
HLA-C (216526_x_at) avg fold change vs control: 1.2 fold
HLA-DMB (203932_at) avg fold change vs control: 1.4 fold
HLA-DQA1 (212671_s_at) avg fold change vs control: 2.1 fold
HLA-DQB1 (209823_x_at) avg fold change vs control: 2.0 fold
HLA-DQB1 (211654_x_at) avg fold change vs control: 2.0 fold
HLA-DQB2 (212998_x_at) avg fold change vs control: 1.9 fold
HLA-DRA (208894_at) avg fold change vs control: 1.3 fold
HLA-DRA (210982_s_at) avg fold change vs control: 1.5 fold
HLA-DRB3 (209312_x_at) avg fold change vs control: 1.5 fold
HLA-DRB6 (217362_x_at) avg fold change vs control: 1.4 fold
HLA-E (200905_x_at) avg fold change vs control: 1.1 fold
HLA-E (217456_x_at) avg fold change vs control: 1.2 fold
HLA-F (204806_x_at) avg fold change vs control: 1.2 fold
HLA-F (221875_x_at) avg fold change vs control: 1.0 fold
ICAM1 (202638_s_at) avg fold change vs control: 0.8 fold
ICAM1 (215485_s_at) avg fold change vs control: 1.1 fold
ICSBP1 (204057_at) avg fold change vs control: 1.6 fold
IFI27 (202411_at) avg fold change vs control: 3.3 fold
IFI30 (201422_at) avg fold change vs control: 1.3 fold
IFI44 (214453_s_at) avg fold change vs control: 1.3 fold
IFIT1 (203153_at) avg fold change vs control: 0.8 fold
IFIT2 (217502_at) avg fold change vs control: 1.1 fold
IFIT4 (204747_at) avg fold change vs control: 0.8 fold
IFITM2 (201315_x_at) avg fold change vs control: 1.0 fold
IFITM3 (212203_x_at) avg fold change vs control: 1.1 fold
IGF1 (209541_at) avg fold change vs control: 0.9 fold
IGFBP4 (201508_at) avg fold change vs control: 0.6 fold
IL1A (208200_at) avg fold change vs control: 0.4 fold
IL2RG (204116_at) avg fold change vs control: 3.8 fold
IL27RA (205926_at) avg fold change vs control: 1.1 fold
INDO (210029_at) avg fold change vs control: 1.6 fold
INPP5D (203332_s_at) avg fold change vs control: 1.6 fold
ITGB2 (202803_s_at) avg fold change vs control: 1.1 fold
JAK1 (214377_s_at) avg fold change vs control: 0.9 fold
KLKB1 (206541_at) avg fold change vs control: 1.1 fold
LCK (204890_s_at) avg fold change vs control: 3.2 fold
LCP2 (205270_s_at) avg fold change vs control: 1.9 fold
LILRB1 (207857_at) avg fold change vs control: 1.0 fold
LILRB1 (211100_x_at) avg fold change vs control: 1.4 fold
LILRB3 (208594_x_at) avg fold change vs control: 1.1 fold
LILRB3 (210225_x_at) avg fold change vs control: 1.3 fold
LY86 (205859_at) avg fold change vs control: 1.5 fold
LY96 (206584_at) avg fold change vs control: 1.4 fold
LYN (210754_s_at) avg fold change vs control: 1.5 fold
MAF (209348_s_at) avg fold change vs control: 1.3 fold
PCOLCE (202465_at) avg fold change vs control: 0.7 fold
PLCL2 (216217_at) avg fold change vs control: 1.0 fold
PLSCR1 (202446_s_at) avg fold change vs control: 1.1 fold
PRC1 (218009_s_at) avg fold change vs control: 1.1 fold
PRG1 (201858_s_at) avg fold change vs control: 1.0 fold
PRG1 (201859_at) avg fold change vs control: 1.2 fold
PTPN22 (206060_s_at) avg fold change vs control: 2.5 fold
PTPRC (207238_s_at) avg fold change vs control: 2.5 fold
SOCS3 (206360_s_at) avg fold change vs control: 0.9 fold
STAT1 (209969_s_at) avg fold change vs control: 2.7 fold
STAT1 (AFFX-HUMISGF3A/M97935_5_at) avg fold change vs control: 0.9 fold
STAT1 (AFFX-HUMISGF3A/M97935_MA_at) avg fold change vs control: 1.3 fold
STAT1 (AFFX-HUMISGF3A/M97935_MB_at) avg fold change vs control: 1.2 fold
TAPBP (208829_at) avg fold change vs control: 1.1 fold
TCTEL1 (201999_s_at) avg fold change vs control: 1.0 fold
TLR1 (210176_at) avg fold change vs control: 1.3 fold
TLR2 (204924_at) avg fold change vs control: 0.8 fold
TNFAIP3 (202643_s_at) avg fold change vs control: 1.5 fold
TNFAIP3 (202644_s_at) avg fold change vs control: 1.7 fold
TNFSF6 (210865_at) avg fold change vs control: 1.4 fold
TRGC2 (211144_x_at) avg fold change vs control: 1.2 fold
TRGC2 (216920_s_at) avg fold change vs control: 1.6 fold
VCAM1 (203868_s_at) avg fold change vs control: 1.9 fold
XCL1 (206366_x_at) avg fold change vs control: 2.0 fold
XCL1 (214567_s_at) avg fold change vs control: 3.5 fold
XLKD1 (219059_s_at) avg fold change vs control: 1.5 fold
cig5 (213797_at) avg fold change vs control: 1.3 fold
